For this experiment, the system named is Mycobacterium tuberculosis. The experiment can be described thus: Antimycobacterial activity against Mycobacterium tuberculosis H37Rv ATCC 25618 by BACTEC 460 radiometric method. It is filed as functional.

From ChEMBL document CHEMBL1157865, “Synthesis and evaluation of SQ109 analogues as potential anti-tuberculosis candidates” (2010) come the findings set out here.

In brackets after ≈: the same amount, converted by molar mass.

`CC(C)=CCC/C(C)=C/CC/C(C)=C/CNCCNC1C2CC3CC(C2)CC1C3` (stereo unspecified) displayed a minimum inhibitory concentration (MIC) of 0.25 µM (≈ 0.0997 µg/mL).
On to `CC(C)CCCC(C)CCNCCNC1C2CC3CC(C2)CC1C3` (stereo unspecified), for which the MIC was determined as 1 µM (≈ 0.335 µg/mL).
Compound `CC(C)CCCC(C)CCCC(C)CCNCCNC1C2CC3CC(C2)CC1C3` (stereo unspecified) gave an MIC of 0.5 µM (≈ 0.202 µg/mL).
To `CC(C)=CCC/C(C)=C\CNCCNC12CC3CC(CC(C3)C1)C2` belongs 1 µM (≈ 0.331 µg/mL); to `CC(C)CCCC(C)CCNCCNC12CC3CC(CC(C3)C1)C2` (stereo unspecified), 0.5 µM (≈ 0.167 µg/mL); to `CC(C)=CCC/C(C)=C/CNCCNC1C2CC3CC(C2)CC1C3` (stereo unspecified) [SQ109], 0.5 µM (≈ 0.165 µg/mL).
